Reference: patent publication US8445207B2, “Genes based on thalidomide, valproic acid and methotrexate treatment for screening of drug inducing teratogenicity and screening method using thereof” (priority 2009, dated 2013)

System: JEG-3 (human placental choriocarcinoma cell line)
Test: Oligo microarray gene expression in drug-treated JEG-3 (Cy5 treated / Cy3 control)
Format: cell-based
Details: treated at IC30, up-regulated gene
Protocol: Thalidomide, valproic acid, and methotrexate were treated to human placental choriocarcinoma cell line at the concentrations determined above (Inhibition concentration: the concentration that can kill approximately 30% of the total cells, that is the concentration of 70% viability, IC30). mRNA was extracted from the drug treated cell line, followed by synthesis of cDNA which was labeled with Cy5. The non-treated control was labeled with Cy3. The fluorescence labeled cDNA was hybridized with 41K (thalidomide), 44K (valproic acid, methotrexate) human whole genome oligomicroarray chips (Agilent, USA), followed by fluorescent image scanning to analyze gene expression patterns (see FIG. 4). Volcano Plot of each substance was also attached. Y axis indicates probability (generally converted by −log 10). X axis indicates differential expression, which is presented by log-ratio.
Total RNA was separated from the treated cell by using trizol reagent (Invitrogen Life Technologies, USA) according to the manufacture's instructions, followed by purification using RNeasy mini kit (Qiagen, USA). Genomic DNA was eliminated during RNA purification using RNase-free DNase set (Qiagen, USA).
30 μg of the total RNA obtained above and 2 μg (1 μg/μl) of oligo (dT) primer were mixed, followed by reaction at 65° C. for 10 minutes. Annealing was performed in ice right after the reaction. Reagents were prepared as shown in Table 1 for reverse transcription of the annealed RNA.
The total RNA separated from the control group JEG-3 cells was labeled with Cy3-dUTP (green) and the total RNA separated from the experiment group JEG-3 cells treated with thalidomide, valproic acid and methotrexate was labeled with Cy5-dUTP (red). At this time, the two samples were mixed and purified by Microcon YM-30 column (Millipore, USA).
Hybridization and washing were performed by the manufacturer's (GenoCheck, Korea) instructions. Particularly, hybridization was performed in a 62° C. oven for 12 hours. As a DNA microarray chip, 44 k whole human genome oligo microarray (Agilent, USA) was used. After washing (2 minutes with 2×SSC/0.1% SDS, three minutes with 1×SSC, 2 minutes with 0.2×SSC), the slide was dried by centrifugation at 800 rpm for 3 minutes.
Hybridization image on the slide was scanned with Genepix 4000B (Axon Instruments, USA). Fluorescence image of the chip on which non-hybridized genes had been washed out was obtained by using laser fluorescence scanner. Green fluorescence image indicates the activity of gene specifically expressed in the control group and red fluorescence image indicates the activity of gene specifically expressed in the experimental group. […] Scanned image was analyzed by using GenePix 4.1 software (Axon Instruments, USA) to calculate gene expression rate.

[1] = (j) Response to oxidative stress
[2] = (k) common gene which has no function

CCCC(CCC)C(=O)O [VPA, valproic acid]
Ratio of intermediate value, gene GSTM3 (NM_000849, GLUTATHION E S-TRANSFERASE M3 (BRAIN)) ((h) Nervous system development): 3.69
Ratio of intermediate value, gene HEYL (NM_014571, HAIRY/ENHANCER-OF-SPLIT RELATED WITH YRPW MOTIF-LIKE) ((h) Nervous system development): 2.13
Ratio of intermediate value, gene IRS2 (NM_003749, INSULIN RECEPTOR SUBSTRATE 2) ((h) Nervous system development): 2.09
Ratio of intermediate value, gene KCNQ2 (NM_172109, POTASSIUM VOLTAGE-GATED CHANNEL, KQT-LIKE SUBFAMILY, MEMBER 2) ((h) Nervous system development): 4.41
Ratio of intermediate value, gene KDELC1 (NM_015831, ACETYLCHOLINESTERASE (YT BLOOD GROUP)) ((h) Nervous system development): 2.47
Ratio of intermediate value, gene KIF5C (AB011103, KINESIN HEAVY CHAIN NEURON-SPECIFIC 2) ((h) Nervous system development): 11.94
Ratio of intermediate value, gene MAPT (NM_016835, MICROTUBULE-ASSOCIATED PROTEIN TAU) ((h) Nervous system development): 3.18
Ratio of intermediate value, gene MYLIP (NM_013262, MYOSIN REGULATORY LIGHT CHAIN INTERACTING PROTEIN) ((h) Nervous system development): 2.88
Ratio of intermediate value, gene NRXN3 (NM_004796, NEUREXIN 3) ((h) Nervous system development): 2.25
Ratio of intermediate value, gene PPIL6 (NM_000115, ENDOTHELIN RECEPTOR TYPE B) ((h) Nervous system development): 3.13
Ratio of intermediate value, gene PRPS1 (NM_002764, PHOSPHORIBOSYL PYROPHOSPHATE SYNTHETASE 1) ((h) Nervous system development): 2.12
Ratio of intermediate value, gene SCG10; SGC10; SCGN10 (S82024, STATHMIN-LIKE 2) ((h) Nervous system development): 2.41
Ratio of intermediate value, gene SDFR1 (NM_012428, NEURO-PLASTIN) ((h) Nervous system development): 2.26
Ratio of intermediate value, gene SELM (BX537571, FYN ONCOGENE RELATED TO SRC, FGR, YES) ((h) Nervous system development): 3.34
Ratio of intermediate value, gene SEMA6C (NM_030913, SEMA DOMAIN, TRANSMEMBRANE DOMAIN (TM), AND CYTOPLASMIC DOMAIN, (SEMAPHORIN) 6C) ((h) Nervous system development): 2.77
Ratio of intermediate value, gene TUBB2 (NM_001069, TUBULIN, BETA 2A) ((h) Nervous system development): 3.11
Ratio of intermediate value, gene TWSG1 (NM_020648, TWISTED GASTRULATION HOMOLOG 1 (DROSOPHILA)) ((h) Nervous system development): 2.56
Ratio of intermediate value, gene GCLM (CR598364, GLUTAMATE-CYSTEINE LIGASE, MODIFIER SUBUNIT) ((i) Neuron apoptosis): 2.61
Ratio of intermediate value, gene GTF2A1 (BC028148, TUMOR NECROSIS FACTOR (TNF SUPERFAMILY, MEMBER 2)) ((i) Neuron apoptosis): 2.15
Ratio of intermediate value, gene HPCAL4 (BC028066) ((i) Neuron apoptosis): 6.07
Ratio of intermediate value, gene KRAS2 (BC029545, V-HA-RAS HARVEY RAT SARCOMA VIRAL ONCOGENE HOMOLOG) ((i) Neuron apoptosis): 2.62
Ratio of intermediate value, gene LIG4 (NM_002312, LIGASE IV, DNA, ATP-DEPENDENT) ((i) Neuron apoptosis): 2.19
Ratio of intermediate value, gene DKFZp761B1514 (AK025742, UNCOUPLING PROTEIN 2 (MITOCHONDRIAL, PROTON CARRIER)) [1]: 2.39
Ratio of intermediate value, gene DYRK3 (BC030009, SELENOPROTEIN P, PLASMA, 1) [1]: 5.57
Ratio of intermediate value, gene FTH1 (BC006523, SERUM/GLUCOCORTICOID REGULATED KINASE 2) [1]: 2.13
Ratio of intermediate value, gene GPX3 (NM_002084, GLUTATHIONE PEROXIDASE 3 (PLASMA)) [1]: 2.10
Ratio of intermediate value, gene HMOX1 (NM_002133, HEME OXYGENASE (DECYCLING) 1) [1]: 2.85
Ratio of intermediate value, gene MOSPD1 (H18681, SULFIREDOXIN 1 HOMOLOG (S. CEREVISIAE)) [1]: 3.56
Ratio of intermediate value, gene RPL4 (AK094940, GLUTAMATE-CYSTEINE LIGASE, CATALYTIC SUBUNIT) [1]: 2.49
Ratio of intermediate value, gene TXNIP (NM_006472, THIOREDOXIN INTERACTING PROTEIN) [1]: 4.52
Ratio of intermediate value, gene ATP10B (AB018258, ATPase, Class V, type 10B) [2]: 2.03
Ratio of intermediate value, gene BQ186674 (cDNA clone UI-E-EJ1-ajr-f-10-0-UI, Hypothetical gene supported by AF086204) [2]: 2.79
Ratio of intermediate value, gene BX111592 (Transcribed locus, moderately similar to XP_066443.6 PREDICTED: similar to paraneoplastic antigen like 6A) [2]: 1.50
Ratio of intermediate value, gene CGA (NM_000735, Glycoprotein hormones, alpha polypeptide) [2]: 2.14
Ratio of intermediate value, gene COBLL1 (BX649112, COBL-like 1) [2]: 1.52
Ratio of intermediate value, gene CYP19A1 (AK023571, Cytochrome P450, family 19, subfamily A, polypeptide 1) [2]: 1.78
Ratio of intermediate value, gene FLJ11017 (AK001879, Hypothetical protein FLJ11017) [2]: 1.87
Ratio of intermediate value, gene GLCCI1 (AK126731, Glucocorticoid induced transcript 1) [2]: 2.27
Ratio of intermediate value, gene KIAA0310 (AB002308, KIAA0310) [2]: 1.59
Ratio of intermediate value, gene MGC27016 (AK125877, Hypothetical protein MGC27016) [2]: 2.62
Ratio of intermediate value, gene NCOA3 (NM_181659, Nuclear receptor coactivator 3) [2]: 1.62
Ratio of intermediate value, gene RGS2 (BC042755, Regulator of G-protein signalling 2, 24 kDa) [2]: 3.04
Ratio of intermediate value, gene SIAT7A (BC063830, ST6 (alpha-N-acetyl-neuraminyl-2,3-beta-galactosyl-1,3)-N-acetylgalactosaminide alpha-2,6-sialyltransferase 1) [2]: 1.69
Ratio of intermediate value, gene SIAT8D (NM_005668, ST8 alpha-N-acetyl-neuraminide alpha-2,8-sialyltransferase 4) [2]: 1.79
Ratio of intermediate value, gene SLC7A8 (Y18483, Solute carrier family 7 (cationic amino acid transporter, y+ system), member 8) [2]: 2.48
Ratio of intermediate value, gene SLC40A1 (AK023574, Solute carrier family 40 (iron-regulated transporter), member 1) [2]: 1.70
Ratio of intermediate value, gene TFCP2L4 (BC036890, Grainyhead-like 3 (Drosophila)) [2]: 3.12
Ratio of intermediate value, gene TTF2 (AB209845, Transcription termination factor, RNA polymerase II) [2]: 1.81
Ratio of intermediate value, gene TUBB3 (AK122757, Tubulin, beta 3) [2]: 1.70
Ratio of intermediate value, gene TncRNA (AF001893, Trophoblast-derived noncoding RNA) [2]: 3.61
